Laboratory results: the supplement of paper PMC10331698
± gives the standard deviation of the averaged measurements.

Tests used:
Assay in all cases: level (log10 ratio to DMSO vehicle control); higher = higher biomarker level / cell amount than vehicle control
Settings in all cases: in DMSO
[1] = compound: Cc1ccc(S(=O)(=O)OCC(F)(F)C(F)(F)C(F)(F)C(F)(F)C(F)(F)C(F)F)cc1 [1H,1H,7H-Perfluoroheptyl 4-methylbenzenesulfonate]
Method: (§1)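 BioMAP Diversity Plus panel of 12 human primary cell co-culture systems (3C, 4H, LPS, SAg, BT, BF4T, BE3C, CASM3C, HDF3CGF, KF3CT, MyoF, Mphg). Compounds were added 1 h before stimulation and left for 24 h (MyoF 48 h; BT 72 h for soluble read-outs or 6 d for IgG). Biomarkers were read by ELISA, cytotoxicity by SRB, PBMC viability and proliferation by Alamar Blue. Each well value was divided by the mean of 8 DMSO control wells on the same plate and log10 transformed; duplicate blinded samples were tested at 4 concentrations.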

[2] = compound: O=P(O)(O)CCC(F)(F)C(F)(F)C(F)(F)C(F)(F)C(F)(F)C(F)(F)F [2-(Perfluorohexyl)ethylphosphonic acid]
Method: as §1

[3] = compound: C=CC(=O)OCC(F)(F)C(F)(F)C(F)(F)C(F)(F)C(F)(F)C(F)(F)C(F)(F)C(F)F [1H,1H,9H-Perfluorononyl acrylate]
Method: as §1

Perfluoropinacol = compound: OC(C(F)(F)F)(C(F)(F)F)C(O)(C(F)(F)F)C(F)(F)F [Perfluoropinacol]
Method: as §1

[4] = compound: OCC(F)(F)C(F)(F)C(F)(F)C(F)(F)C(F)(F)C(F)(F)C(F)(F)C(F)(F)C(F)(F)C(F)(F)C(F)(F)F [11:1 Fluorotelomer alcohol]
Method: as §1

[5] = compound: OCC(F)(F)C(F)(F)C(F)(F)C(F)(F)C(F)(F)C(F)(F)C(F)(F)C(F)(F)CO [1H,1H,10H,10H-Perfluorodecane-1,10-diol]
Method: as §1

Tetrafluorosuccinic acid = compound: O=C(O)C(F)(F)C(F)(F)C(=O)O [Tetrafluorosuccinic acid]
Method: as §1

Test System | level (log10) ([1]; 6700 nM) | level (log10) ([1]; 20000 nM) | level (log10) ([1]; 60000 nM) | level (log10) ([2]; 6700 nM) | level (log10) ([2]; 20000 nM) | level (log10) ([2]; 60000 nM) | level (log10) ([3]; 6700 nM) | level (log10) ([3]; 20000 nM) | level (log10) ([3]; 60000 nM) | level (log10) (Perfluoropinacol; 6700 nM) | level (log10) (Perfluoropinacol; 20000 nM) | level (log10) ([4]; 1100 nM) | level (log10) ([4]; 3300 nM) | level (log10) ([4]; 10000 nM) | level (log10) ([5]; 6700 nM) | level (log10) ([5]; 20000 nM) | level (log10) ([5]; 60000 nM) | level (log10) (Tetrafluorosuccinic acid; 6700 nM) | level (log10) (Tetrafluorosuccinic acid; 20000 nM) | level (log10) (Tetrafluorosuccinic acid; 60000 nM)
SAg:CD62E/E-Selectin | 0.021 ± 0.0028 | 0.007 ± 0.018 | -0.0115 ± 0.028 | 0.004 ± 0.0042 | 0.0015 ± 0.0021 | 0.0635 ± 0.021 | -0.0345 ± 0.016 | -0.0595 ± 0.015 | -0.121 ± 0.052 | 0.008 ± 0.0071 | -0.15 ± 0.0021 | 0.045 ± 0.0057 | 0.0325 ± 0.018 | 0.0355 ± 0.035 | -0.0215 ± 0.005 | -0.015 ± 0.0099 | -0.015 | -0.015 | -0.003 ± 0.016 | 0.0035 ± 0.0035
SAg:Proliferation | -0.0085 ± 0.07 | -0.011 ± 0.0085 | -0.0335 ± 0.086 | 0.0125 ± 0.0078 | -0.0165 ± 0.019 | -0.036 ± 0.03 | -0.024 ± 0.0014 | -0.166 ± 0.029 | -0.58 ± 0.14 | 0.0035 ± 0.093 | -0.163 ± 0.021 | -0.248 ± 0.083 | -0.364 ± 0.13 | -0.473 ± 0.35 | -0.0135 ± 0.025 | -0.058 ± 0.013 | -0.048 | 0.017 ± 0.04 | -0.0205 ± 0.032 | 0.049 ± 0.027
BF4T:tPA | -0.0305 ± 0.025 | -0.0255 ± 0.022 | -0.0555 ± 0.025 | -0.059 ± 0.0014 | -0.067 ± 0.0057 | -0.0615 ± 0.064 | -0.0135 ± 0.028 | -0.006 ± 0.011 | -0.0395 ± 0.026 | -0.028 ± 0.011 | 0.032 ± 0.014 | 0.0015 ± 0.0092 | -0.003 ± 0.0071 | 0.026 ± 0.024 | -0.061 ± 0.016 | -0.164 ± 0.013 | -0.246 | -0.0145 ± 0.0078 | -0.006 ± 0.034 | -0.025 ± 0.013
LPS:sPGE2 | -0.0185 ± 0.03 | -0.023 ± 0.024 | 0.003 ± 0.058 | -0.0245 ± 0.013 | -0.0005 ± 0.019 | 0.0035 ± 0.025 | -0.046 ± 0.0071 | -0.123 ± 0.053 | -0.15 ± 0.11 | 0.086 ± 0.038 | 0.182 ± 0.015 | 0.151 ± 0.075 | 0.212 ± 0.0064 | 0.211 ± 0.044 | -0.0125 ± 0.03 | 0.0375 ± 0.0078 | 0.025 | 0.0125 ± 0.032 | -0.002 ± 0.047 | 0.054 ± 0.031
BE3C:CXCL10/IP-10 | -0.0095 ± 0.0092 | -0.033 ± 0.016 | -0.015 ± 0.0014 | -0.056 ± 0.058 | -0.057 ± 0.067 | -0.0455 ± 0.09 | -0.01 ± 0.016 | 0 ± 0.0014 | -0.005 ± 0.0099 | -0.0315 ± 0.0035 | -0.118 ± 0.0071 | -0.0345 ± 0.035 | -0.0745 ± 0.03 | -0.043 ± 0.0071 | -0.0205 ± 0.013 | -0.19 ± 0.088 | -0.94 | -0.007 ± 0.0028 | -0.009 ± 0.0057 | -0.0125 ± 0.0035
LPS:M-CSF | -0.019 ± 0.033 | -0.026 ± 0.0057 | 0.008 ± 0.03 | -0.0175 ± 0.074 | 0.0055 ± 0.043 | 0.0255 ± 0.019 | 0.0015 ± 0.032 | -0.0025 ± 0.0092 | -0.0265 ± 0.057 | 0.0135 ± 0.015 | -0.1085 ± 0.00071 | -0.009 ± 0.018 | -0.054 ± 0.047 | -0.0825 ± 0.066 | -0.018 ± 0.024 | -0.013 | 0.011 | -0.0255 ± 0.0078 | -0.018 ± 0.014 | 0.0335 ± 0.047
BT:sIL-17A | 0.093 ± 0.0099 | 0.037 ± 0.045 | -0.117 ± 0.12 | 0.018 ± 0.11 | -0.07 ± 0.017 | -0.135 ± 0.059 | -0.174 ± 0.019 | -0.509 ± 0.17 | -1.28 ± 0.4 | -0.177 ± 0.11 | -0.642 ± 0.061 | 0.329 ± 0.16 | 0.401 ± 0.032 | 0.325 ± 0.06 | -0.0865 ± 0.012 | -0.208 ± 0.24 | -0.729 | -0.0215 ± 0.084 | -0.0995 ± 0.00071 | -0.074 ± 0.021
